Consider 19 molecules from ChEMBL document CHEMBL3045144, “Relationship between physicochemical properties and herbicidal activity of 1,2,5-oxadiazole N-oxide derivatives” (Molecules, 2005).

The subject of series [1] is Triticum aestivum. Kind of series: Pre-emergence herbicidal activity against Triticum aestivum L. (wheat) assessed change in radicular weight. The class given is functional. Also on record: concentration or dose not given beside the values.
The nature of series [2]: Retention factor, logKw of the compound in pure aqueous mobile phases by RP-HPLC method. To be noted: buffer. The class given is physicochemical.
The subject of series [3] is Triticum aestivum. Kind of series: Pre-emergence herbicidal activity against Triticum aestivum L. (wheat) assessed change in aerial weight. The class given is functional. Also on record: concentration or dose not given beside the values.
Series [4] deals with Triticum aestivum. Kind of series: Pre-emergence herbicidal activity against Triticum aestivum L. (wheat) assessed change in leaf length. The class given is functional. Set-up: concentration or dose not given beside the values.

For `Cc1c(/C=N/NC(N)=S)no[n+]1[O-]`, the Activity in the series with Triticum aestivum [1] is -95%. Also, the logKw in series [2] turned out to be 1.18.

Consider `[O-][n+]1onc(-c2ccccc2)c1CCl`, for which the Activity is listed as -7% in the series with Triticum aestivum [1], -4% with Triticum aestivum [3] and -0.99% with Triticum aestivum [4]. Moreover, the logKw in series [2] was found to be 4.24.

In the case of `Cc1c(C=O)no[n+]1[O-]`, the Activity was -5% with Triticum aestivum [1], -5% in the series with Triticum aestivum [3] and -1.62% in the series with Triticum aestivum [4]. The same molecule displayed a logKw in series [2] of 0.22.

Consider `[O-][n+]1onc(-c2ccccc2)c1CN1CCN(c2ncccn2)CC1`, for which the Activity in the series on Triticum aestivum [1] is 0%; with Triticum aestivum [3], 0%; with Triticum aestivum [4] it was -1.22%.

In the case of `COC(=O)N/N=C/c1ccc2nonc2c1`, the figures for the Activity with Triticum aestivum [1] and in the series on Triticum aestivum [3] were 20% and 35%, respectively. In series [2], this molecule showed a logKw of 2.21.

As for `O=C(Nc1ccc(Cl)cc1)c1ccc2c(c1)no[n+]2[O-]`, the Activity in the series with Triticum aestivum [1] is -73%; in the series with Triticum aestivum [3] it was -50%; in the series with Triticum aestivum [4], -1.43%.

As to `O=C(c1ccc2c(c1)no[n+]2[O-])N1CCOCC1`, the values for the Activity with Triticum aestivum [1], with Triticum aestivum [3] and in the series with Triticum aestivum [4] were -52%, -55% and -2.06%, respectively. This molecule also registered a logKw in series [2] of 1.27.

Take `CCCCNC(=O)c1ccc2c(c1)no[n+]2[O-]`: the Activity is -66% in the series on Triticum aestivum [1], -71% with Triticum aestivum [3] and -1.54% in the series on Triticum aestivum [4]. In series [2], this molecule gave a logKw of 2.74.

As to `COCCNC(=O)c1ccc2c(c1)no[n+]2[O-]`, the Activity with Triticum aestivum [1] was -2%; with Triticum aestivum [3], -23%; with Triticum aestivum [4], -1.54%. Moreover, the logKw in series [2] is on record as 1.46.

Consider `COC(=O)N/N=C/c1no[n+]([O-])c1C`, for which the figures for the Activity in the series with Triticum aestivum [1], in the series on Triticum aestivum [3] and in the series with Triticum aestivum [4] were -50%, -50% and -2.08%, respectively. This molecule displayed a logKw in series [2] of 1.47.

Take `COC(=O)N/N=C/c1c(-c2ccccc2)no[n+]1[O-]`: the Activity with Triticum aestivum [1] is recorded as 16%; in the series on Triticum aestivum [3], -22%; in the series with Triticum aestivum [4], -1.19%. In series [2], this molecule registered a logKw of 3.34.

Consider `NC(=S)N/N=C/c1c(-c2ccccc2)no[n+]1[O-]`, for which the Activity was 8% with Triticum aestivum [1], -30% in the series with Triticum aestivum [3] and -1.03% in the series with Triticum aestivum [4]. Besides, in series [2], the logKw turned out to be 3.24.

As for `Cc1c(/C=N/NC(=O)NC2CCCCC2)no[n+]1[O-]`, the Activity is -85% in the series with Triticum aestivum [1], -50% in the series on Triticum aestivum [3] and -1.59% in the series with Triticum aestivum [4]. This molecule also displayed a logKw in series [2] of 4.39.

For `Cc1ccc2c(c1)no[n+]2[O-]`, the figures for the Activity with Triticum aestivum [1], with Triticum aestivum [3] and in the series with Triticum aestivum [4] were -58%, -58% and -2%, respectively. In addition, in series [2], the logKw came to 2.18.

Regarding `O=Cc1ccc2c(c1)no[n+]2[O-]`, the Activity in the series with Triticum aestivum [1] was -5%; in the series on Triticum aestivum [3], -30%; with Triticum aestivum [4], -0.93%. This molecule displayed a logKw in series [2] of 2.4.

Turning to `O=C(O)c1ccc2c(c1)no[n+]2[O-]`, the results for the Activity in the series on Triticum aestivum [1] and in the series with Triticum aestivum [3] were -9% and -16%, respectively.

In the case of `COC(=O)N/N=C\c1ccc2c(c1)no[n+]2[O-]`, the Activity is 13% in the series on Triticum aestivum [1], -6% in the series with Triticum aestivum [3] and -1.17% in the series with Triticum aestivum [4]. In series [2], this molecule gave a logKw of 2.02.

As to `COCCNC(=O)N/N=C\c1ccc2c(c1)no[n+]2[O-]`, the logKw in series [2] was 2.31. Also, the Activity with Triticum aestivum [4] is reported as -1.1%.

On to `O=Cc1c(-c2ccccc2)no[n+]1[O-]`, for which the Activity in the series with Triticum aestivum [1] is reported as 18%; with Triticum aestivum [3], -4%; with Triticum aestivum [4], -1.2%.
